{"source": "patent US20080319163A1", "about": "“Method for Isolating and Purifying Immuno-Modulating Polypeptide from Cow Placenta” (priority 2005, published 2008)", "key": {"[1]": {"system": "mice spleen lymphocyte", "assay": "Stimulating lymphocyte proliferation in vitro (MTT method)", "format": "cell-based", "settings": "mice spleen lymphocyte suspension, 68 h + 4 h MTT, OD 570 nm; chromatography fractions screened; values only in figures; listed as component 4", "protocol": "1) Stimulating Lymphocyte Proliferation in vitro\nCulturing Cells • 1 Preparing Spleen Lymphocyte Suspension:\nRemove out the mice spleen under sterile condition, separate lymphocyte by lymphocyte separation medium, regulate the cell concentration to 1×10^6/ml with complete 1640 culture solution. • 2 Experiment Arrangement:\nSet control group and experiment group separately to identify the activity of stimulating spleen lymphocyte proliferation by every component. • 3. Experiment Method:\nAdd 100 μL mice spleen lymphocyte suspension (1×10^6/mL) to 96 well cultured plates. Add 100 μL saline/sample to control group and experiment group separately. Mix to homogenous gently, culture in incubator for 68 h at 37° C. under 5% CO2. Add 20 μl MTT to every well under sterile condition, Mix to homogenous gently, continue to culture for 4 h, add 100 μl dimethyl sulfoxide to every well, keep at room temperature for 10 min, then determine OD of every well by ELISA at 570 nm. • 4. Data Processing\nThe spleen lymphocyte proliferation rate of experiment group is calculated by the following formula: […]\nThe value of P is calculated by variance analysis, and significant difference is calculate by T test."}, "[2]": {"assay": "Isoelectric point by CIEF (capillary isoelectric focusing)", "format": "physicochemical", "settings": "determined by CIEF", "text": "3) Determining isoelectric point of immuno-modulating polypeptide by CIEF.\nThe foresaid methods 2)-5) are the normal methods known as those skilled in the art."}}, "note": "“Also recorded” adds a separate entry of the source.", "data": [{"substance": "Tyr-X-Phe-Leu-Gly-Leu-Pro-Gly-X-Thr [immuno-modulating polypeptide]", "values": [{"measurement": "activity determined by stimulating lymphocyte proliferation in vitro", "setting": "[1]", "value": "high-purity inmmuno-modulating polypeptide; also recorded: high-purity immuno-modulating polypeptide"}, {"measurement": "isoelectric point", "setting": "[2]", "value": 3.82}]}]}
